Laboratory results published in patent US20250270330A1, “TREATMENT OF HEADACHE DISORDERS WITH NK3 MODULATORS” (Kallyope, Inc., priority 2022, published 2025).

Experiments:
[1] = tested on: rats with inflammatory soup-sensitized trigeminal ganglia; assay: In vivo migraine headache model: von Frey periorbital threshold after GTN challenge; parameters: species or system Sprague-Dawley rats
Procedure: Surgeries were performed as previously described in Oshinsky, M. L. & Gomonchareonsiri, S., Episodic dural stimulation in awake rats: a model for recurrent headache, 47 HEADACHE 1026-1036 (2007). Adult male Sprague-Dawley rats were habituated towards handling for 1-2 weeks before undergoing dural cannulation surgery under isoflurane anesthesia. Attention was given not to disturb the dura. A custom flange guide cannula (22GA, Plastics One) was inserted. The cannula was fixed to the bone with small screws and dental cement.
After 1-2 weeks of recovery from surgery, animals received supradural infusions of an inflammatory soup comprising 2 mM histamine, bradykinin, serotonin, 0.2 mM prostaglandin E2 under brief isoflurane anesthesia (1.5-3%) for 5 consecutive days (1/day) (i.e., the 5-day sensitization period).
The design was within-subjects with the same animals receiving multiple treatments in a crossover fashion with at least one week washout between each treatment. Evoked sensory testing for mechanical allodynia was done by von Frey periorbital threshold testing. Sensory testing occurred during the day using von Frey filaments with reproducible calibrated buckling forces varying from 0.4-10 g and utilizing the up-and-down method. See Dixon, W. J., The Up-and-Down Method for Small Samples, 60 J. AM. STAT. ASSOC., 967-978 (1965); Chaplan, S. R., Bach, F. W., Pogrel, J. W., Chung, J. M. & Yaksh, T. L., Quantitative assessment of tactile allodynia in the rat paw, 53 J. NEUROSCI. METHODS 55-63 (1994) (hereinafter “Chaplan 1994”). Based on the response pattern and the force of the final filament, the periorbital threshold (g) was calculated according to the prior art method set forth, e.g., in Chaplan 1994 and Bonin, R. P., Bories, C. & De Koninck, Y., A simplified up-down method (SUDO) for measuring mechanical nociception in rodents using von Frey filaments, 10 MOL. PAIN 26 (2014). A blinded investigator tested periorbital sensitivity before drug administration, and 45 min and 1.5 h after drug administration. Studies were conducted with n=13-22.

[2] = tested on: luteinizing hormone (LH); assay: Luteinizing hormone (LH) inhibition studies, serum LH by ELISA; type: in vivo, castrated male Sprague-Dawley rats; details: for reduction in LH levels: 100 mg/kg
Procedure: Studies measuring LH were performed on castrated male Sprague-Dawley rats. Briefly, animals were castrated through a midline scrotal incision using Zoletil® 50 as an anesthetic. Surgeries were performed at least 15 days before compound testing.
Serum was collected at baseline, then every 15 minutes starting from 30 minutes after PO […] dosing with vehicle, fezolinetant (30 mg/kg), or SB 235375 (30 and 100 mg/kg). Blood was collected from the jugular vein, transferred into 1.5-mL centrifuge tubes, and centrifuged at 8000 g for 15 minutes to separate the serum. Serum LH levels were determined using a rat luteinizing hormone ELISA kit (Colorimetric, Novus). The assays were performed following the manufacturer's protocol. Group sizes were from n=10 for the vehicle and SB 235375 groups and n=4 for fezolinetant.

CC[C@H](NC(=O)c1c(OCC(=O)O)c(-c2ccccc2)nc2ccccc12)c1ccccc1 [SB 235375]
pain (periorbital) threshold ([1]; GTN + 30 and 100 mg/kg PO, 45, 90 minutes, vs GTN and vehicle): higher pain thresholds
mean LH value ([2]; 30 mg/kg PO, 0 min (baseline)): 31.6 ng/mL
mean LH value ([2]; 30 mg/kg PO, 30 min): 33.4 ng/mL
mean LH value ([2]; 30 mg/kg PO, 90 min): 35.8 ng/mL
mean LH value ([2]; 30 mg/kg PO, 150 min): 30.4 ng/mL
increase in LH levels ([2]; 30 mg/kg, 30 minutes): ~+4%
increase in LH levels ([2]; 30 mg/kg, 90 minutes): ~+13%
reduction in LH levels compared to vehicle ([2]; 30 mg/kg, 150 minutes): roughly 4%
mean LH value ([2]; 100 mg/kg PO, 0 min (baseline)): 34.7 ng/mL
mean LH value ([2]; 100 mg/kg PO, 30 min): 25.7 ng/mL
mean LH value ([2]; 100 mg/kg PO, 90 min): 29.7 ng/mL
mean LH value ([2]; 100 mg/kg PO, 150 min): 31.1 ng/mL
reduction in LH levels ([2]; 30 minutes): roughly 26%
reduction in LH levels ([2]; 90 minutes): ~14%
reduction in LH levels ([2]; 150 minutes): ~10%
LH levels compared to the vehicle-treated group ([2]; 30 and 100 mg/kg): did not exhibit a significant difference

Cc1nsc(-c2nnc3n2CCN(C(=O)c2ccc(F)cc2)[C@@H]3C)n1 [fezolinetant]
withdrawal (periorbital) threshold ([1]; GTN + 30 mg/kg PO, 90 min timepoint, vs saline+vehicle or GTN+vehicle): significantly higher
withdrawal (periorbital) threshold ([1]; GTN + 100 mg/kg PO, both timepoints (45 min, 1.5 h), vs each control group): significantly higher
mean LH value ([2]; 30 mg/kg PO, 0 min (baseline)): 37.3 ng/mL
mean LH value ([2]; 30 mg/kg PO, 30 min): 15.2 ng/mL
mean LH value ([2]; 30 mg/kg PO, 90 min): 6.1 ng/mL
mean LH value ([2]; 30 mg/kg PO, 150 min): 5.5 ng/mL
reduction in LH levels compared to vehicle ([2]; 30 mg/kg, 30 minutes): approximately 60%
reduction in LH levels compared to vehicle ([2]; 30 mg/kg, 90 minutes): roughly 85%
reduction in LH levels compared to vehicle ([2]; 30 mg/kg, 150 minutes): roughly 85%
LH serum concentrations ([2]; 30 mg/kg, all measured time points (30, 90, and 150 min)): significantly reduced
